Experimental data taken from patent US20070122810A1 (priority 2003, published 2007).
Like-named read-outs stand apart in the source and are kept apart here.

System: tumor cell suspension (glioma samples)
[1] = FIG. 5, example B, tumor located near normal brain tissue in phylogenetic tree, 8 hours incubation, about 1/10 of highest blood concentration
[2] = FIG. 5, example A, tumor located near normal brain tissue in phylogenetic tree, 8 hours incubation, about 1/10 of highest blood concentration

Method: These drugs were classified into five following categories by pharmacological mechanism. • Alkylating agents: • 4-hydroperoxy-cyclophosphamide (CPM)(1 μg/ml), 4-hydroperoxy-ifosfamide (IFOS) (I μg/ml), melphalan (MPL) (0.5 μg/ml), carboquone (CQ) (0.1 μg/ml), nimustine (ACNU) (2 μg/ml), ranimustine (MCNU) (2 μg/ml), cisplatinum (CDDP) (0.5 μg/ml) and carboplatin (JM-8) (4 μg/ml) • Antimetabolites: • Methotrexate (MTX) (3 μg/ml), 5-fluoro uracil (5-FU) (10 μg/ml), thioinosine (6-MRP) (3μg/ml) and cytosine arabinoside (CA) (4 μg/ml) • Antibiotics: • Mitomycin C (MMC) (0.2 μg/ml), bleomycin (BLM) (1 μg/ml), peplomycin (PEP) (0.5 μg/ml), chromomycin A3 (TM) (0.01 μg/ml) and neocarsinostatin (NCS) (0.15 μg/ml) • Topoisomerase inhibitors: • Actinomycin D (ACD) (0.01 μg/ml), aclarubicin (ACR) (0.6 μg/ml), adriamycin (ADM) (0.3 μg/ml), daunomycin (DM) (0.6 μg/ml), pirarubicin (THP) (0.3 μg/ml), epirubicin (4′-EPI) (0.4 μg/ml), mitoxantrone (MIT) (0.06 μg/ml), etoposide (VP-16) (3 μg/ml) and camptothecine (CPT-11) (3 μg/ml) • Microtubule Inhibitors: • Vincristine (VCR) (0.1 μg/ml), vinblastin (VLB) (0.1 μg/ml), vindesin (VDS) (0.1 μg/ml) and paclitaxel (TAX) (0.6 μg/ml)
The in vitro concentrations of these drugs were set to about 1/10 of the highest blood concentration when administered at a dose clinically recommended, and differences in the reaction by dose were evaluated for 10 selected drugs (CPM, ACNU, CDDP, PEP, ADM, VP-16, CA, TAX, VCR). The cultured samples of these were mixed in a phosphate buffered saline (pH 7.2)/0.1% Triton X-100/0.1 mg/ml RNase/0.01% sodium azide for 15 minutes and subsequently mixed with 50 g/ml of propidium iodide (Sigma,St.Louis, Mo.) for 5 minutes. The isolated nuclei were analyzed with flow cytometer (FACScan:Becton Dickinson, Mountain view, Calif.). The efficacy of a drug was judged by shifting the nucleus of apoptosis to a low diploid (sub-G1) region and comparing reverse decrease of the peak of the thus incorporated diploid with decrease of untreated control cells. […] Decomposition and condensation of chromatin were judged as a marker of apoptosis and quantitatively evaluated by Fisher's exact test.

Compound	efficacy of drug in drug sensitivity test [1]	efficacy of drug in drug sensitivity test [2]	efficacy of drug in drug sensitivity test (FIG. 5, example C, tumor located slightly away from normal brain tissue in phylogenetic tree)	drug sensitivity of tumors having sensitivity to ACNU (tumors having sensitivity to ACNU)
CC(=O)O[C@H]1C(=O)[C@@]2(C)[C@H]([C@H](OC(=O)c3ccccc3)[C@]3(O)C[C@H](OC(=O)[C@H](O)[C@@H](NC(=O)c4ccccc4)c4ccccc4)C(C)=C1C3(C)C)[C@]1(OC(C)=O)CO[C@@H]1C[C@@H]2O [TAX, paclitaxel]	effective	–	–	–
Cc1ncc(CNC(=O)N(CCCl)N=O)c(N)n1 [ACNU, nimustine]	effective	effective	–	–
O=P1(N(CCCl)CCCl)NC(OO)CCO1 (stereo not shown) [CPM]	effective	effective	–	–
CC[C@]1(O)C[C@H]2CN(CCc3c([nH]c4ccccc34)[C@@](C(=O)OC)(c3cc4c(cc3OC)N(C=O)[C@H]3[C@@](O)(C(=O)OC)[C@H](OC(C)=O)[C@]5(CC)C=CCN6CC[C@]43[C@@H]65)C2)C1 [VCR, vincristine]	–	–	effective	generally resistant
